According to patent publication US7897620B2, “Methods of using anti-inflammatory compounds” (Cambridge Enterprise Limited, priority 2007, dated 2011):
Read-outs that look alike come from different tables or passages of the source.

Key:
[1] = tested on: SDF-1α induced THP-1 cell migration; experiment: ChemoTx transwell migration assay, SDF-1α induced migration of THP-1 cells; assay type: cell-based; details: Homo sapiens, maximal dose of chemoattractant, read-out: ED50 SDF-1α
Experimental: (§1) In principle, this assay consists of two chambers separated by a porous membrane. The chemoattractant is placed in the lower compartment and the cells are placed in the upper compartment. After incubation for a period at 37° C. the cells move towards the chemoattractant, and the number of cells in the lower compartment is proportional to the chemoattractant activity (relative to a series of controls).
(§2) The THP-1 cell line (European Cell Culture Collection) were used as the leukocyte cell population.
(§3) First, the cell suspension to be placed in the upper compartment is prepared. The THP-1 cells are pelleted by centrifugation (770×g; 4 mins) and washed with Geys Balanced Salt Solution with 1 mg/ml BSA (GBSS+BSA). This wash is then repeated, and the cells repelleted before being resuspended in a small volume of GBSS+BSA for counting, for example using a standard haemocytometer.
(§4) The volume of GBSS+BSA is then adjusted depending on the number of cells present so that the cells are at final density of 4.45×10^6 cells per ml of GBSS+BSA. This ensures that there are […] THP-1 cells in each 25 μl of the solution that will be placed in the upper chamber of the plate.
To test a single compound for its ability to inhibit chemokine induced migration, it is necessary to prepare two lots of cells. The suspension of THP-1 cells at 4.45×10^6 cells/ml is divided into two pots. […]

[2] = tested on: MCP-1 induced THP-1 cell migration; experiment: ChemoTx transwell migration assay, MCP-1 induced migration of THP-1 cells; assay type: cell-based; details: Homo sapiens
Experimental: as §1, §2, §3, §4
To test a single compound for its ability to inhibit chemokine induced migration, it is necessary to prepare two lots of cells. The suspension of THP-1 cells at 4.45×10^6 cells/ml is divided into two pots. To one pot the inhibitor under test is added at an appropriate final concentration, in an appropriate vehicle (for example at 1 μM in not more than 1% DMSO). To the second pot an equal volume of GBSS+BSA plus vehicle as appropriate (e.g. not more than 1% DMSO) is added to act as a control.
Next, the chemoattractant solution to be placed in the lower compartment is prepared. For example, MCP-1 is diluted in GBSS+BSA to give a final concentration of 25 ng/ml. This is divided into two pots, as for the cell suspension. To one pot, the test compound is added to the same final concentration as was added to the cell suspension, while to the other pot an equal volume of GBSS+BSA plus vehicle as appropriate (e,g. not more than 1% DMSO) is added. Alternatively, other chemokines may be used (SDF-1α at 7.5 ng/ml; RANTES at 50 ng/ml; IL-8 at 10 ng/ml using neutrophils as the target cell population). In each case it is important to determine (in a separate experiment) the concentration of each chemokine which causes maximal stimulation of migration of the chosen target leukocyte population. This maximal concentration must then be used in experiments to test the inhibitory activity of the compounds of the invention.
Once the chemoattractant solutions for the lower wells and cell solutions for the upper chambers have been prepared, the migration chamber should be assembled. Place 29 μl of the appropriate chemoattractant solution into the lower well of the chamber. Assays should be performed with at least triplicate determinations of each condition. Once all the lower chambers have been filled, apply the porous membrane to the chamber in accordance with the manufacturer's instructions. Finally, apply 25 μl of the appropriate cell solution to each upper chamber. A plastic lid is placed over the entire apparatus to prevent evaporation.
The assembled chamber is incubated at 37° C., 5% CO2, for 2 hours. A suspension of cells in GBSS+BSA is also incubated under identical conditions in a tube: these cells will be used to construct a standard curve for determining the number of cells that have migrated to the lower chamber under each condition.
At the end of the incubation, the liquid cell suspension is gently removed from the upper chamber, and 20 μl of ice-cold 20 mM EDTA in PBS is added to the upper chamber, and the apparatus is incubated at 4° C. for 15 mins. This procedure causes any cells adhering to the underside of the membrane to fall into the lower chamber.
After this incubation the filter is carefully flushed with GBSS+BSA to wash off the EDTA, and then the filter is removed. […]

[3] = Distribution of compounds into tissues and unchanged parent in urine 24 hrs after a single oral dose; assay type: in vivo; details: rat; for concentration at 24 h: 24 hrs after single oral dose 3 mg/kg in 1% CMC, nd = not detected, LLOQ 2.4 ng/g
Experimental: Urine was collected from rats exposed to a single oral dose (3 mg/kg in 1% CMC) of each compound over a 24 hour period in metabolic cages. The pooled urine sample was then subjected to full scan mass spectral analysis, using the same LC-MS conditions as described in example 1 above. Further MS-MS analysis of the product ions was then performed, and likely fragmentations/re-arrangements assigned from the publicly available Metabolite ID database.
To provide a quantitative estimate of the degree of metabolism suffered by each of the compounds tested, the amount of unchanged parent compound in urine was measured using the same validated LC-MS assay described in example 1, using (S)-3-(2′,2′-dimethylpropanoylamino)-caprolactam as an internal standard. In addition, the level of compounds in various target tissues was also determined.

[4] = Water solubility (observation); assay type: physicochemical
[5] = THP-1 cells, maximal dose of chemoattractant, read-out: ED50 MCP-1
[6] = THP-1 migration inhibition, Table 5, read-out: Functional ED50 versus MCP-1

In the case of `O=C1NCCCC[C@@H]1NC(=O)C12CC3CC(CC(C3)C1)C2` [(II), 3-(adamantane-1-carbonylamino)-caprolactam], the EC50 [1] is reported as 100 pM, the EC50 [2, 5] is reported as 80 pM and the EC50 [2, 6] is reported as 80 pM.
In the case of `CC(C)(C)C(=O)N[C@H]1CCCNC1=O` [Compound (I′), 3-(2′,2′-dimethylpropanoylamino)-tetrahydropyridin-2-one], the concentration at 24 h ([3]; brain, read-out: Level of compound in Brain) is reported as 1.6 ng/g, the concentration at 24 h ([3]; heart, read-out: Level of compound in Heart) is reported as 5.3 ng/g and the concentration at 24 h ([3]; kidney, read-out: Level of compound in Kidney) is reported as 5.1 ng/g. The concentration at 24 h ([3]; liver, read-out: Level of compound in Liver) was 3.6 ng/g, the concentration at 24 h ([3]; lung, read-out: Level of compound in Lung) was 21.9 ng/g and the concentration at 24 h ([3]; muscle, read-out: Level of compound in Muscle) was 3.1 ng/g. The “water solubility” value [4] was “extremely water soluble”.
`O=C1NCCCC[C@@H]1NC(=O)C12CC3CC(CC(O)(C3)C1)C2` [(V), 3-(3′-hydroxyadamantyl-1-carbonylamino)-caprolactam] gave an EC50 [1] of 200 pM.
For `CC(C)(C)S(=O)(=O)N[C@H]1CCCCNC1=O` [(IV), 3-(1′,1′-dimethylethylsulfonylamino)-caprolactam], the “fraction of the injected dose recovered unchanged in urine” value ([3]; 24 hrs, single oral dose 3 mg/kg) was “less than 10%”, the EC50 [2, 5] was 800 pM and the EC50 [2, 6] was 800 pM.
